From article PMC8843100, “Development of newly synthesised quinazolinone-based CDK2 inhibitors with potent efficacy against melanoma” (Journal of Enzyme Inhibition and Medicinal Chemistry, 2022)

Experiments:
786-0 = assay: NCI-60 single dose screen, sulforhodamine B; assay type: cell-based, human; conditions: Renal cancer 786-0; single dose 10^−5 M
How it was run: (§1)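 Sulforhodamine B staining after 2 days' exposure to compound at 10^−5 M, given one day after seeding. Values are growth inhibition relative to untreated and time-zero plates, so cell kill and net growth inhibition can be distinguished.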

A498 = assay: NCI-60 single dose screen, sulforhodamine B; assay type: cell-based, human; conditions: Renal cancer A498; single dose 10^−5 M
How it was run: as §1

A549/ATCC = assay: NCI-60 single dose screen, sulforhodamine B; assay type: cell-based, human; conditions: Non-small cell lung cancer A549/ATCC; single dose 10^−5 M
How it was run: as §1

ACHN = assay: NCI-60 single dose screen, sulforhodamine B; assay type: cell-based, human; conditions: Renal cancer ACHN; single dose 10^−5 M
How it was run: as §1

BT-549 = assay: NCI-60 single dose screen, sulforhodamine B; assay type: cell-based, human; conditions: Breast cancer BT-549; single dose 10^−5 M
How it was run: as §1

CAKI-1 = assay: NCI-60 single dose screen, sulforhodamine B; assay type: cell-based, human; conditions: Renal cancer CAKI-1; single dose 10^−5 M
How it was run: as §1

CCRF-CEM = assay: NCI-60 single dose screen, sulforhodamine B; assay type: cell-based, human; conditions: Leukaemia CCRF-CEM; single dose 10^−5 M
How it was run: as §1

EKVX = assay: NCI-60 single dose screen, sulforhodamine B; assay type: cell-based, human; conditions: Non-small cell lung cancer EKVX; single dose 10^−5 M
How it was run: as §1

HCC-2998 = assay: NCI-60 single dose screen, sulforhodamine B; assay type: cell-based, human; conditions: Colon cancer HCC-2998; single dose 10^−5 M
How it was run: as §1

HOP-62 = assay: NCI-60 single dose screen, sulforhodamine B; assay type: cell-based, human; conditions: Non-small cell lung cancer HOP-62; single dose 10^−5 M
How it was run: as §1

HOP-92 = assay: NCI-60 single dose screen, sulforhodamine B; assay type: cell-based, human; conditions: Non-small cell lung cancer HOP-92; single dose 10^−5 M
How it was run: as §1

HS 578T = assay: NCI-60 single dose screen, sulforhodamine B; assay type: cell-based, human; conditions: Breast cancer HS 578T; single dose 10^−5 M
How it was run: as §1

HT29 = assay: NCI-60 single dose screen, sulforhodamine B; assay type: cell-based, human; conditions: Colon cancer HT29; single dose 10^−5 M
How it was run: as §1

KM12 = assay: NCI-60 single dose screen, sulforhodamine B; assay type: cell-based, human; conditions: Colon cancer KM12; single dose 10^−5 M
How it was run: as §1

MALME-3M = assay: NCI-60 single dose screen, sulforhodamine B; assay type: cell-based, human; conditions: Melanoma MALME-3M; single dose 10^−5 M
How it was run: as §1

NCI-H23 = assay: NCI-60 single dose screen, sulforhodamine B; assay type: cell-based, human; conditions: Non-small cell lung cancer NCI-H23; single dose 10^−5 M
How it was run: as §1

NCI-H322M = assay: NCI-60 single dose screen, sulforhodamine B; assay type: cell-based, human; conditions: Non-small cell lung cancer NCI-H322M; single dose 10^−5 M
How it was run: as §1

NCI-H460 = assay: NCI-60 single dose screen, sulforhodamine B; assay type: cell-based, human; conditions: Non-small cell lung cancer NCI-H460; single dose 10^−5 M
How it was run: as §1

NCI-H522 = assay: NCI-60 single dose screen, sulforhodamine B; assay type: cell-based, human; conditions: Non-small cell lung cancer NCI-H522; single dose 10^−5 M
How it was run: as §1

OVCAR-3 = assay: NCI-60 single dose screen, sulforhodamine B; assay type: cell-based, human; conditions: Ovarian cancer OVCAR-3; single dose 10^−5 M
How it was run: as §1

OVCAR-4 = assay: NCI-60 single dose screen, sulforhodamine B; assay type: cell-based, human; conditions: Ovarian cancer OVCAR-4; single dose 10^−5 M
How it was run: as §1

OVCAR-8 = assay: NCI-60 single dose screen, sulforhodamine B; assay type: cell-based, human; conditions: Ovarian cancer OVCAR-8; single dose 10^−5 M
How it was run: as §1

PC-3 = assay: NCI-60 single dose screen, sulforhodamine B; assay type: cell-based, human; conditions: Prostate cancer PC-3; single dose 10^−5 M
How it was run: as §1

SF-268 = assay: NCI-60 single dose screen, sulforhodamine B; assay type: cell-based, human; conditions: CNS cancer SF-268; single dose 10^−5 M
How it was run: as §1

SK-MEL-5 = assay: NCI-60 single dose screen, sulforhodamine B; assay type: cell-based, human; conditions: Melanoma SK-MEL-5; single dose 10^−5 M
How it was run: as §1

SN12C = assay: NCI-60 single dose screen, sulforhodamine B; assay type: cell-based, human; conditions: Renal cancer SN12C; single dose 10^−5 M
How it was run: as §1

SR = assay: NCI-60 single dose screen, sulforhodamine B; assay type: cell-based, human; conditions: Leukaemia SR; single dose 10^−5 M
How it was run: as §1

T-47D = assay: NCI-60 single dose screen, sulforhodamine B; assay type: cell-based, human; conditions: Breast cancer T-47D; single dose 10^−5 M
How it was run: as §1

TK-10 = assay: NCI-60 single dose screen, sulforhodamine B; assay type: cell-based, human; conditions: Renal cancer TK-10; single dose 10^−5 M
How it was run: as §1

U251 = assay: NCI-60 single dose screen, sulforhodamine B; assay type: cell-based, human; conditions: CNS cancer U251; single dose 10^−5 M
How it was run: as §1

UACC-257 = assay: NCI-60 single dose screen, sulforhodamine B; assay type: cell-based, human; conditions: Melanoma UACC-257; single dose 10^−5 M
How it was run: as §1

Row | SMILES | GI% at 10^−5 M (786-0) | GI% at 10^−5 M (A498) | GI% at 10^−5 M (A549/ATCC) | GI% at 10^−5 M (ACHN) | GI% at 10^−5 M (BT-549) | GI% at 10^−5 M (CAKI-1) | GI% at 10^−5 M (CCRF-CEM) | GI% at 10^−5 M (EKVX) | GI% at 10^−5 M (HCC-2998) | GI% at 10^−5 M (HOP-62) | GI% at 10^−5 M (HOP-92) | GI% at 10^−5 M (HS 578T) | GI% at 10^−5 M (HT29) | GI% at 10^−5 M (KM12) | GI% at 10^−5 M (MALME-3M) | GI% at 10^−5 M (NCI-H23) | GI% at 10^−5 M (NCI-H322M) | GI% at 10^−5 M (NCI-H460) | GI% at 10^−5 M (NCI-H522) [%] | GI% at 10^−5 M (OVCAR-3) | other results
1 | O=C(CN1CCN(c2ccccc2)CC1)Nn1c(COc2ccccc2)nc2ccccc2c1=O [Compound 8b, N-(4-oxo-2-(phenoxymethyl)quinazolin-3(4H)-yl)-2–(4-phenylpiperazin-1-yl)acetamid] | – (– means GI < 10%) | – (– means GI < 10%) | – (– means GI < 10%) | – (– means GI < 10%) | – (– means GI < 10%) | – (– means GI < 10%) | – (– means GI < 10%) | – (– means GI < 10%) | – (– means GI < 10%) | – (– means GI < 10%) | – (– means GI < 10%) | 10.4% | – (– means GI < 10%) | – (– means GI < 10%) | – (– means GI < 10%) | 10.01% | – (– means GI < 10%) | – (– means GI < 10%) | 11.45 | – (– means GI < 10%) | GI% at 10^−5 M (OVCAR-4): – (– means GI < 10%); GI% at 10^−5 M (OVCAR-8): – (– means GI < 10%); GI% at 10^−5 M (PC-3): – (– means GI < 10%); GI% at 10^−5 M (SF-268): – (– means GI < 10%); GI% at 10^−5 M (SK-MEL-5): – (– means GI < 10%); GI% at 10^−5 M (SN12C): – (– means GI < 10%); GI% at 10^−5 M (SR): – (– means GI < 10%); GI% at 10^−5 M (T-47D): – (– means GI < 10%); GI% at 10^−5 M (TK-10): – (– means GI < 10%); GI% at 10^−5 M (U251): – (– means GI < 10%); GI% at 10^−5 M (UACC-257): – (– means GI < 10%); melting point: 115 to 117 °C
2 | COc1ccc(N2CCN(CC(=O)Nn3c(COc4ccccc4)nc4ccccc4c3=O)CC2)cc1 [Compound 8c, 2–(4-(4-methoxyphenyl)piperazin-1-yl)-N-(4-oxo-2-(phenoxymethyl)quinazolin-3(4H)-yl)acetamide] | – (– means GI < 10%) | 15.04% | – (– means GI < 10%) | – (– means GI < 10%) | – (– means GI < 10%) | – (– means GI < 10%) | – (– means GI < 10%) | – (– means GI < 10%) | – (– means GI < 10%) | – (– means GI < 10%) | – (– means GI < 10%) | – (– means GI < 10%) | – (– means GI < 10%) | – (– means GI < 10%) | – (– means GI < 10%) | – (– means GI < 10%) | – (– means GI < 10%) | – (– means GI < 10%) | 10.67 | – (– means GI < 10%) | GI% at 10^−5 M (OVCAR-4): – (– means GI < 10%); GI% at 10^−5 M (OVCAR-8): – (– means GI < 10%); GI% at 10^−5 M (PC-3): 14.02%; GI% at 10^−5 M (SF-268): – (– means GI < 10%); GI% at 10^−5 M (SK-MEL-5): – (– means GI < 10%); GI% at 10^−5 M (SN12C): – (– means GI < 10%); GI% at 10^−5 M (SR): 12.84%; GI% at 10^−5 M (T-47D): – (– means GI < 10%); GI% at 10^−5 M (TK-10): – (– means GI < 10%); GI% at 10^−5 M (U251): – (– means GI < 10%); GI% at 10^−5 M (UACC-257): – (– means GI < 10%); melting point: 100 to 102 °C
